# Assay results taken from patent US9505781B2, “Compositions comprising thienopyrimidine and thienopyridine compounds and methods of use thereof” (The Regents of the University of Michigan, priority 2013, dated 2016).
# pIC50: −log10 of the molar value.
# Biological target: T1, menin-MLL interaction (Homo sapiens, UniProt O00255)
# T1 sequence (O00255 1-610): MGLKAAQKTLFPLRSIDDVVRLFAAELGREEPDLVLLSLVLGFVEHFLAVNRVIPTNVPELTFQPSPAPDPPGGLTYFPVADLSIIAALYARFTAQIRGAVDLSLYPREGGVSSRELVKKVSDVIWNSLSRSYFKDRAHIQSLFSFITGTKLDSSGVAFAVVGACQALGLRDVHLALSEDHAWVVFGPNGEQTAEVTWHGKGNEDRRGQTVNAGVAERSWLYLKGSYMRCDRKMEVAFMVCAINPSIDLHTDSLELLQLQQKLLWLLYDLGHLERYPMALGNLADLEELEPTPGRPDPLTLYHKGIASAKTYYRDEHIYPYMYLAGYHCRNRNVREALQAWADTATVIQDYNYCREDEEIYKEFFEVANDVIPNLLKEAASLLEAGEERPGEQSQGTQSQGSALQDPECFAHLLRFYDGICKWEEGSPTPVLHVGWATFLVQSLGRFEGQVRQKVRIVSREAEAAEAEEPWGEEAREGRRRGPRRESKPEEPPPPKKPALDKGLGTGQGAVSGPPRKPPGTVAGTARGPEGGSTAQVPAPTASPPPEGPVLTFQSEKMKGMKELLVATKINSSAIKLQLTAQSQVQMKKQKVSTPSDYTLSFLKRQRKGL
# Test: biochemical
# From the text: Compounds that inhibit the interaction decrease the fluorescence anisotropy which is being used as a read-out for compound screening and for IC50 determination.
row,Structure (SMILES),pIC50
1,O=C(Cc1ccc(NS(=O)(=O)CNCC(F)(F)F)cc1)N1CCN(c2ncnc3sc(CC(F)(F)F)cc23)CC1 [Compound 62],> 7.00
2,CS(=O)(=O)N(CC#N)c1ccc(CC(=O)N2CCN(C3=NC=NC4SC(CC(F)(F)F)=CC34)CC2)c(Cl)c1 (centres unmarked) [Compound 63],> 7.00
3,CS(=O)(=O)Nc1ccc(CC(=O)N2CCN(C3=NC=NC4SC(CC(F)(F)F)=CC34)CC2)c(Cl)c1 (centres unmarked) [Compound 64],> 7.00
4,Nc1ccc(CC(=O)N2CCN(c3ncnc4sc(CC(F)(F)F)cc34)CC2)cc1 [Compound 69],6.30 to 7.00
5,O=C(Cc1ccccc1Cl)N1CCN(c2ncnc3sc(CC(F)(F)F)cc23)CC1 [Compound 70],6.30 to 7.00
6,O=C(Cc1ccc(Cl)cc1)N1CCN(c2ncnc3sc(CC(F)(F)F)cc23)CC1 [Compound 71],6.30 to 7.00
7,O=C(Cc1ccccc1F)N1CCN(c2ncnc3sc(CC(F)(F)F)cc23)CC1 [Compound 72],6.30 to 7.00
8,O=C(Cc1ccc(Cc2ccoc2)cc1)N1CCN(c2ncnc3sc(CC(F)(F)F)cc23)CC1 [Compound 76],6.30 to 7.00
9,N#CCc1ccc(CC(=O)N2CCN(c3ncnc4sc(CC(F)(F)F)cc34)CC2)cc1 [Compound 77],6.30 to 7.00
10,O=C(Cc1ccc2cc[nH]c2c1)N1CCN(c2ncnc3sc(CC(F)(F)F)cc23)CC1 [Compound 81],6.30 to 7.00
11,CNS(=O)(=O)c1ccc(CC(=O)N2CCN(c3ncnc4sc(CC(F)(F)F)cc34)CC2)cc1 [Compound 82],6.30 to 7.00
12,Cn1cc(S(=O)(=O)Nc2ccc(CC(=O)N3CCN(c4ncnc5sc(CC(F)(F)F)cc45)CC3)cc2)cn1 [Compound 83],6.30 to 7.00
13,COc1cccc(CC(=O)N2CCN(c3ncnc4sc(CC(F)(F)F)cc34)CC2)c1 [Compound 95],5.70 to 6.30
14,NS(=O)(=O)Cc1ccc(CC(=O)N2C[C@@H]3CC[C@H]2CN3c2ncnc3sc(CC(F)(F)F)cc23)cc1 [Compound 97],5.70 to 6.30
15,CS(=O)(=O)N(CC#N)c1ccc(C(F)(F)C(=O)N2CCN(c3ncnc4sc(CC(F)(F)F)cc34)CC2)cc1 [Compound 104],5.70 to 6.30
16,"Oc1ccc(CN2CCC(Nc3ncnc4sc(CC(F)(F)F)cc34)CC2)cc1 [Compound 105, 4-((4-((6-(2,2,2-trifluoroethyl)thieno[2,3-d]pyrimidin-4-yl)amino)piperidin-1-yl)methyl)phenol]",> 7.00

row,Structure (SMILES),pIC50
1,Oc1cccc(CN2CCC(Nc3ncnc4sc(CC(F)(F)F)cc34)CC2)c1 [Compound 109],6.30 to 7.00
2,OCc1ccccc1CN1CCC(Nc2ncnc3sc(CC(F)(F)F)cc23)CC1 [Compound 110],6.30 to 7.00
3,Oc1cccc(O)c1CN1CCC(Nc2ncnc3sc(CC(F)(F)F)cc23)CC1 [Compound 111],6.30 to 7.00
4,OCc1c(CC(F)(F)F)sc2ncnc(NC3CCN(Cc4ccccc4)CC3)c12 [Compound 112],6.30 to 7.00
5,Oc1ccccc1CN1CCC(Nc2ncnc3sc(CC(F)(F)F)cc23)CC1 [Compound 114],6.30 to 7.00
6,FC(F)(F)Cc1cc2c(NC3CCN(Cc4ccc(N5CCOCC5)cc4Cl)CC3)ncnc2s1 [Compound 115],6.30 to 7.00
7,CCc1ccc(CN2CCC(Nc3ncnc4sc(CC(F)(F)F)cc34)CC2)cc1 [Compound 118],6.30 to 7.00
8,FC(F)(F)Cc1cc2c(NC3CCN(Cc4ccccc4Cl)CC3)ncnc2s1 [Compound 119],6.30 to 7.00
9,NCc1ccccc1CN1CCC(Nc2ncnc3sc(CC(F)(F)F)cc23)CC1 [Compound 121],6.30 to 7.00
10,NN(c1ncnc2sc(CC(F)(F)F)cc12)C1CCN(Cc2ccccc2)CC1 [Compound 123],6.30 to 7.00
11,OCCNN(c1ncnc2sc(CC(F)(F)F)cc12)C1CCN(Cc2ccccc2)CC1 [Compound 125],6.30 to 7.00
12,Cc1c(CC(F)(F)F)sc2ncnc(NC3CCN(Cc4ccccc4)CC3)c12 [Compound 126],6.30 to 7.00
13,OCCCN(c1ncnc2sc(CC(F)(F)F)cc12)C1CCN(Cc2ccccc2)CC1 [Compound 127],6.30 to 7.00
14,OCC(O)CN(c1ncnc2sc(CC(F)(F)F)cc12)C1CCN(Cc2ccccc2)CC1 (centres unmarked) [Compound 128],6.30 to 7.00
15,OCCN(c1ncnc2sc(CC(F)(F)F)cc12)C1CCN(Cc2ccccc2)CC1 [Compound 129],6.30 to 7.00
16,FC(F)(F)Cc1cc2c(NC3CCN(Cc4cccs4)CC3)ncnc2s1 [Compound 132],6.30 to 7.00

# Continued, values first:
row,pIC50,Structure (SMILES)
1,> 7.00,CN(c1ccc(CC(=O)N2CCN(C3=NC=NC4SC(CC(F)(F)F)=CC34)CC2)c(Cl)c1)S(C)(=O)=O (centres unmarked) [Compound 65]
2,> 7.00,CCN(c1ccc(CC(=O)N2CCN(C3=NC=NC4SC(CC(F)(F)F)=CC34)CC2)c(Cl)c1)S(C)(=O)=O (centres unmarked) [Compound 66]
3,6.30 to 7.00,O=C(Cc1ccccc1)N1CCN(c2ncnc3sc(CC(F)(F)F)cc23)CC1 [Compound 67]
4,6.30 to 7.00,O=C(Cc1ccccc1O)N1CCN(c2ncnc3sc(CC(F)(F)F)cc23)CC1 [Compound 68]
5,6.30 to 7.00,O=C(Cc1cccc(F)c1)N1CCN(c2ncnc3sc(CC(F)(F)F)cc23)CC1 [Compound 73]
6,6.30 to 7.00,COc1ccc(CC(=O)N2CCN(c3ncnc4sc(CC(F)(F)F)cc34)CC2)cc1 [Compound 74]
7,6.30 to 7.00,O=C(Cc1ccc(F)cc1)N1CCN(c2ncnc3sc(CC(F)(F)F)cc23)CC1 [Compound 75]
8,6.30 to 7.00,NS(=O)(=O)Cc1ccc(CC(=O)N2CCN(c3ncnc4sc(CC(F)(F)F)cc34)CC2)c(F)c1 [Compound 78]
9,6.30 to 7.00,O=C(Cc1ccc(CS(=O)(=O)C(F)(F)F)cc1)N1CCN(c2ncnc3sc(CC(F)(F)F)cc23)CC1 [Compound 79]
10,6.30 to 7.00,O=C1CCC(c2ccc(CC(=O)N3CCN(c4ncnc5sc(CC(F)(F)F)cc45)CC3)cc2)N1 (centres unmarked) [Compound 80]
11,6.30 to 7.00,CS(=O)(=O)N(CC(N)=O)c1ccc(CC(=O)N2CCN(C3=NC=NC4SC(CC(F)(F)F)=CC34)CC2)c(Cl)c1 (centres unmarked) [Compound 84]
12,6.30 to 7.00,CS(=O)(=O)N(CC(F)(F)F)c1ccc(CC(=O)N2CCN(c3ncnc4sc(CC(F)(F)F)cc34)CC2)cc1 [Compound 85]
13,5.70 to 6.30,O=C(N1CCCC1)N1CCN(c2ncnc3sc(CC(F)(F)F)cc23)CC1 [Compound 86]
14,5.70 to 6.30,O=C(C1CCCCC1)N1CCN(c2ncnc3sc(CC(F)(F)F)cc23)CC1 [Compound 87]
15,5.70 to 6.30,O=C(CCc1ccccc1)N1CCN(c2ncnc3sc(CC(F)(F)F)cc23)CC1 [Compound 88]
16,5.70 to 6.30,O=C(CC1CCCCC1)N1CCN(c2ncnc3sc(CC(F)(F)F)cc23)CC1 [Compound 89]
17,5.70 to 6.30,O=C(CCC1CCCCC1)N1CCN(c2ncnc3sc(CC(F)(F)F)cc23)CC1 [Compound 90]
18,5.70 to 6.30,O=C(N1CCCCC1)N1CCN(c2ncnc3sc(CC(F)(F)F)cc23)CC1 [Compound 91]
19,5.70 to 6.30,O=C(COCc1ccccc1)N1CCN(c2ncnc3sc(CC(F)(F)F)cc23)CC1 [Compound 92]
20,5.70 to 6.30,O=C(CCCc1ccccc1)N1CCN(c2ncnc3sc(CC(F)(F)F)cc23)CC1 [Compound 93]

row,pIC50,Structure (SMILES)
1,5.70 to 6.30,COc1ccccc1CC(=O)N1CCN(c2ncnc3sc(CC(F)(F)F)cc23)CC1 [Compound 94]
2,5.70 to 6.30,NS(=O)(=O)Cc1cccc(CC(=O)N2CCN(c3ncnc4sc(CC(F)(F)F)cc34)CC2)c1 [Compound 96]
3,5.70 to 6.30,CCCC(c1ccc(CC(=O)N2CCN(c3ncnc4sc(CC(F)(F)F)cc34)CC2)cc1)S(C)(=O)=O (centres unmarked) [Compound 98]
4,5.70 to 6.30,O=C1NCCC1c1ccc(CC(=O)N2CCN(c3ncnc4sc(CC(F)(F)F)cc34)CC2)cc1 (centres unmarked) [Compound 99]
5,5.70 to 6.30,CS(=O)(=O)N(CC1CCCC1)c1ccc(CC(=O)N2CCN(c3ncnc4sc(CC(F)(F)F)cc34)CC2)cc1 [Compound 100]
6,5.70 to 6.30,CC(C)CN(c1ccc(CC(=O)N2CCN(c3ncnc4sc(CC(F)(F)F)cc34)CC2)cc1)S(C)(=O)=O [Compound 101]
7,5.70 to 6.30,CS(=O)(=O)N(CC1CC1)c1ccc(CC(=O)N2CCN(c3ncnc4sc(CC(F)(F)F)cc34)CC2)cc1 [Compound 102]
8,5.70 to 6.30,CC(C)N(c1ccc(CC(=O)N2CCN(c3ncnc4sc(CC(F)(F)F)cc34)CC2)cc1)S(C)(=O)=O [Compound 103]
9,> 7.00,N#C[C@H]1C[C@@H]1c1ccc(CN2CCC(Nc3ncnc4sc(CC(F)(F)F)cc34)CC2)cc1 [Compound 106]
10,6.30 to 7.00,OCc1cc(O)ccc1CN1CCC(Nc2ncnc3sc(CC(F)(F)F)cc23)CC1 [Compound 107]
11,6.30 to 7.00,Nc1ccccc1CN1CCC(Nc2ncnc3sc(CC(F)(F)F)cc23)CC1 [Compound 113]
12,6.30 to 7.00,FC(F)(F)Cc1cc2c(NC3CCN(Cc4ccc(CN5CCCCC5)cc4)CC3)ncnc2s1 [Compound 116]
13,6.30 to 7.00,Cc1ccccc1CN1CCC(Nc2ncnc3sc(CC(F)(F)F)cc23)CC1 [Compound 117]
14,6.30 to 7.00,Cc1ccc(CN2CCC(Nc3ncnc4sc(CC(F)(F)F)cc34)CC2)c(C)c1 [Compound 120]
15,6.30 to 7.00,Fc1ccc(CN2CCC(Nc3ncnc4sc(CC(F)(F)F)cc34)CC2)c(F)c1 [Compound 122]
16,6.30 to 7.00,FC(F)(F)Cc1cc2c(N(NCc3ccccc3)C3CCN(Cc4ccccc4)CC3)ncnc2s1 [Compound 124]
17,6.30 to 7.00,CC(=O)Nc1ccc(CN2CCC(Nc3ncnc4sc(CC(F)(F)F)cc34)CC2)cc1 [Compound 130]
18,6.30 to 7.00,FC(F)(F)Cc1cc2c(NC3CCN(Cc4ccc[nH]4)CC3)ncnc2s1 [Compound 131]
19,6.30 to 7.00,FC(F)(F)Cc1cc2c(NC3CCN(Cc4ccsc4)CC3)ncnc2s1 [Compound 133]
